From US20160150784A1, “SYNERGISTIC PESTICIDAL COMPOSITIONS AND RELATED METHODS” (Dow AgroSciences LLC, priority 2013, published 2016)
“And” between values parts separate entries of the source, which are not always exact repeats. Identical values can stand only once.

Assays:
[1] = tested on: diamondback moth, Plutella xylostella; experiment: Cabbage leaf disc bioassay (track sprayer, 400 L/Ha) on second instar diamondback moths, percent control, synergy by Colby's equation; type: in vivo; details: single active
From the text: (§1) The method described in Colby S. R., “Calculating Synergistic and Antagonistic Responses of Herbicide Combinations,” Weeds, 1967, 15, 20-22 was used to determine an existence of synergic effect between the ryanodine receptor modulator compound and the pesticide (I), (II), or any agriculturally acceptable salt thereof in the formulated pesticidal composition. In this method, the percent insect control of the formulated pesticidal composition as observed in the study was compared to the “expected” percent control (E) as calculated by equation (1) (hereinafter “Colby's equation”) below: […]
(§2) where • X is the percentage of control with the first pesticide at a given rate (p), • Y is the percentage of control with the second pesticide at a given rate (q), and • E is the expected control by the first and second pesticide at a rate of p+q.
Bioassays were performed for different active compounds. Cabbage plants with about two to three new-growth—true leaf stage were treated with different pesticides using a track sprayer application at 400 L/Ha spray volume. Three second instar diamondback moths, Plutella xylostella, were infested onto each leaf disc.
Bioassays were performed for different active compounds. Cabbage plants with about two to three new-growth—true leaf stage were treated with different pesticides using a track sprayer at a rate of 400 L/Ha. Three second instar diamondback moths, Plutella xylostella, were infested onto each leaf disc.

[2] = tested on: brown stink bug, Euschistus heros; experiment: Diet bioassay on second-instar nymphs of brown stink bug, percent control, synergy by Colby's equation; type: in vivo; details: single active, dose rate 0.04 weight %
From the text: as §1, §2
The percent control of the pesticidal composition against brown stink bug, Euschistus heros, was determined as the “Observed” action, and compared to those obtained by using about 0.04 weight % of compound II, and using about 0.000156 weight % of cyantraniliprole alone. The “Colby's Expected Action” was calculated using Colby's equation as discussed previously.

**Q.** With `CNC(=O)c1cc(Cl)cc(C)c1NC(=O)c1cc(Br)nn1-c1ncccc1Cl` [Chlorantraniliprole, 3-bromo-N-[4-chloro-2-methyl-6-[(methylamino)carbonyl]phenyl]-1-(3-chloro-2-pyridinyl)-1H-pyrazole-5-carboxamide] as the compound, how does the “% Control Three Days After Treatment” value ([1]; dose rate 0.0000347 weight %) read?
**A.** 25%

**Q.** What about the “% Control Three Days After Treatment” value ([1]; dose rate 0.000104 weight %) of the same compound?
**A.** 62.5%

**Q.** And the “% Control Three Days After Treatment” value ([1]; dose rate 0.0003125 weight %)?
**A.** 66.67%

**Q.** `CCN(C(=O)CCSCCC(F)(F)F)c1cn(-c2cccnc2)nc1Cl` [Compound I, N-(3-chloro-1-(pyridin-3-yl)-1H-pyrazol-4-yl)-N-ethyl-3-((3,3,3-trifluoropropyl)thio)propanamide] was tested. Which “% Control Three Days After Treatment” value ([1]; dose rate 0.0025 weight %) did it give?
**A.** 4.35% and 0%

**Q.** How did the “% Control Six Days After Treatment” value [2] turn out when `CCN(C(=O)CC[S+]([O-])CCC(F)(F)F)c1cn(-c2cccnc2)nc1Cl` (stereo not drawn) [Compound II, N-(3-chloro-1-(pyridin-3-yl)-1H-pyrazol-4-yl)-N-ethyl-3-((3,3,3-trifluoropropyl)sulfinyl)propanamide] was run?
**A.** 0%

**Q.** How did the “% Control Three Days After Treatment” value ([1]; dose rate 0.0003125 weight %) turn out when `Cc1cc(C(F)(C(F)(F)F)C(F)(F)F)ccc1NC(=O)c1cccc(I)c1C(=O)NC(C)(C)CS(C)(=O)=O` [Flubendiamide] was run?
**A.** 8.70%
